Series [1] concerns rat aortic ring segments preconstricted with phenylephrine. As to the kind of experiment: Isometric tension studies: vasodilation of preconstricted rat aortic ring segments. In kind it is cell-based. The conditions noted are these: for EC50: read-out: pD2-value (vasodilatory potency) (converted). How it is done:
Vasodilation of rat aortic ring segments preconstricted with phenylephrine, Example 2, Table 1. X-axis: relaxation in %; y-axis: log concentration (log M).
For in vitro characterization of the new pioglitazone nitrate (1) of Example 1, vasodilatory potency was determined by isometric tension studies. According to a published procedure rat aortic ring segments were preconstricted by the alpha-receptor-agonist phenylephrine [Daiber, A. et al., Mol Pharmacol 66 (2004), 1372-1382; Wendt, M. et al., Free Radic Biol Med 39 (2005), 381-391; Munzel, T. et al., J Clin Invest 95 (1995), 187-194]. After reaching a stable preconstriction of vascular tone, the vessels were dose-dependently vasodilated until the final tone at the highest added concentration of the vasodilator was reached. The vasodilators were added at half-logarithmic concentrations starting at 10^−8 M (=10 nanomolar). Vasodilatory potency was compared creating a concentration-relaxation curve. The data are based on experiments with aorta from at least 6 rats on 3 different days.

The subject of series [2] is isolated rat cardiac mitochondria. Description: ROS/RONS formation in isolated mitochondria (L-012 chemiluminescence). In kind it is biochemical. From the text: Reactive oxygen and nitrogen species formation in response to in vitro challenge of isolated rat cardiac mitochondria based on reaction of the chemiluminescence dye L-012 (a luminal analogue), Example 3, Table 2. X-axis: compounds tested with concentration [μM]; y-axis: photons n per 1 sec of emission of chemiluminescence light (ECL).
Vascular oxidative stress is a well-known side effect of nitrate tolerance (an adverse condition that develops under chronic nitrate therapy). Therefore, the induction of reactive oxygen and nitrogen species formation in response to in vitro challenges with the test compounds was assessed in isolated mitochondria according to a published procedure [Daiber, A. et al., Mol Pharmacol 66 (2004), 1372-1382; Daiber, A. et al., Biochem Biophys Res Commun 338 (2005), 1865-1874; Daiber, A. et al., Mol Pharmacol 68 (2005), 579-588]. The assay is based on the reaction of the chemiluminescence dye L-012 (a luminol analogue) with reactive oxygen and nitrogen species (RONS, e.g. superoxide anion radicals, peroxynitrite anions or nitrogen dioxide radicals) and subsequent emission of chemiluminescence light (ECL). The signal is counted in photons/time (=counts/30s). The data are based on experiments with cardiac mitochondria from at least 6 rats on 3 different days.

The mark [3] stands for this setting: rat aortic rings preconstricted with phenylephrine, concentration-relaxation curve.
[4] abbreviates: rat aortic rings preconstricted with phenylephrine.

Like-named read-outs stand apart in the source and are kept apart here.

For the molecule `O=[N+]([O-])O[C@@H]1CO[C@H]2[C@@H]1OC[C@@H]2O` [ISMN, Isosorbide-5-mononitrate], the “Isometric tension, relaxation (Mean ± SEM)” value in series [1] (Log [M] −2) was 98.77 ± 0.75%; in series [1] (Log [M] −2.5), 94.91 ± 1.28%; in series [1] (Log [M] −3), 82.81 ± 3.45%; in series [1] (Log [M] −3.5), 64.17 ± 4.11%; in series [1] (Log [M] −4), 43.46 ± 3.28%; in series [1] (Log [M] −4.5), 16.76 ± 2.29%. Moreover, the “Isometric tension, relaxation (Mean ± SEM)” value worked out at 9.29 ± 2.23% in series [1] (Log [M] −5); 5.47 ± 1.95% in series [1] (Log [M] −5.5); 3.73 ± 1.39% in series [1] (Log [M] −6); 3.86 ± 1.04% in series [1] (Log [M] −6.5); 0% in series [1] (Log [M] −7).
Take `O=C(NCCO[N+](=O)[O-])OCCl` [Linker 2, chloromethyl N-2-nitrooxyethylcarbamate]: the “Isometric tension, relaxation (Mean ± SEM)” value in series [1] (Log [M] −3.5) worked out at 96.18 ± 2.20%; in series [1] (Log [M] −4) it was 91.00 ± 5.36%; in series [1] (Log [M] −4.5), 86.66 ± 6.04%; in series [1] (Log [M] −5), 80.97 ± 6.47%; in series [1] (Log [M] −5.5), 68.37 ± 6.89%; in series [1] (Log [M] −6) it was 51.19 ± 6.35%. The “Isometric tension, relaxation (Mean ± SEM)” value in series [1] (Log [M] −6.5) is reported as 30.73 ± 5.12%; in series [1] (Log [M] −7) it was 16.85 ± 3.29%; in series [1] (Log [M] −7.5) it was 8.25 ± 2.09%; in series [1] (Log [M] −8), 0%. In addition, the “pD2-value (vasodilatory potency)” value in series [1] (setting [3]) was “approximately 6”. Moreover, the “ROS formation, Mean” value is on record as 622.5 counts/1 s in series [2] (Conc. 10 μM, basal 627.7); 674.7 counts/1 s in series [2] (Conc. 100 μM, basal 627.7); 1395.8 counts/1 s in series [2] (Conc. 1000 μM, basal 627.7). In series [2] (in vitro challenge of isolated rat cardiac mitochondria), the “Effect on RONS formation, result in words” value is on record as “has also some increasing effect”.
As to `O=[N+]([O-])OCC(CO[N+](=O)[O-])O[N+](=O)[O-]` [Glycerol trinitrate], the “ROS formation, Mean” value came out at 597.7 counts/1 s in series [2] (Conc. 10 μM, basal 627.7); 898.5 counts/1 s in series [2] (Conc. 100 μM, basal 627.7); 2762 counts/1 s in series [2] (Conc. 1000 μM, basal 627.7).
For the molecule `CCc1ccc(CCOc2ccc(CC3SC(=O)N(COC(=O)NCCO[N+](=O)[O-])C3=O)cc2)nc1` (stereo not drawn) [compound 1], the “Isometric tension, relaxation (Mean ± SEM)” value turned out to be 98.13 ± 5.98% in series [1] (Log [M] −3.5); 87.22 ± 3.34% in series [1] (Log [M] −4); 79.07 ± 3.82% in series [1] (Log [M] −4.5); 70.11 ± 3.49% in series [1] (Log [M] −5); 57.49 ± 3.15% in series [1] (Log [M] −5.5); 43.34 ± 2.88% in series [1] (Log [M] −6). Further, the “Isometric tension, relaxation (Mean ± SEM)” value is recorded as 27.72 ± 2.57% in series [1] (Log [M] −6.5), 12.82 ± 1.68% in series [1] (Log [M] −7), 2.65 ± 1.49% in series [1] (Log [M] −7.5) and 0% in series [1] (Log [M] −8). Moreover, in series [1] (setting [4]), the “Vasodilatory potency, result in words” value was “even more active than isosorbide dinitrate”. The EC50 in series [1] (setting [3]) is roughly 1 µM. For the same molecule, the “Effect on RONS formation, result in words” value in series [2] is recorded as “does not have a pronounced effect on RONS formation”. The “ROS formation, Mean” value in series [2] (rat, 10 μM) came to 697.3 counts/1 s; in series [2] (rat, 100 μM), 609.8 counts/1 s; in series [2] (rat, 1000 μM), 889.2 counts/1 s.
For the molecule `CCc1ccc(CCOc2ccc(CC3SC(=O)NC3=O)cc2)nc1` (racemic) [Pioglitazone], the “Isometric tension, relaxation (Mean ± SEM)” value stood at 55.47 ± 5.98% in series [1] (Log [M] −3.5); 22.40 ± 3.34% in series [1] (Log [M] −4); 11.19 ± 3.82% in series [1] (Log [M] −4.5); 8.30 ± 3.49% in series [1] (Log [M] −5); 5.63 ± 3.15% in series [1] (Log [M] −5.5); 5.40 ± 2.88% in series [1] (Log [M] −6). The “Isometric tension, relaxation (Mean ± SEM)” value in series [1] (Log [M] −6.5) worked out at 4.14 ± 2.57%; in series [1] (Log [M] −7) it was 3.42 ± 1.68%; in series [1] (Log [M] −7.5), 2.92 ± 1.49%; in series [1] (Log [M] −8) it was 0%. In series [1] (setting [4]), the “Vasodilatory potency, result in words” value is on record as “weak relaxing effects”. Also, the EC50 in series [1] (setting [3]) was roughly 316 µM. In addition, the “ROS formation, Mean” value turned out to be 563 counts/1 s in series [2] (rat, 10 μM); 874.5 counts/1 s in series [2] (rat, 100 μM); 801.7 counts/1 s in series [2] (rat, 1000 μM).
